Laboratory results published in patent US5945566A, “Amino compounds of 6,7,8,9-tetrahydro-cyclopenta[a]naphthalene and of 2,3-dihydro-cyclopenta[e]indene” (Adir et Compagnie, priority 1997, dated 1999).

How the values were obtained:
[1] = biological target: T1, human dopamine D2 receptor (Homo sapiens, UniProt P14416); test: human D2 receptor binding ([125I]-iodosulpride, CHO membranes); conditions: dissociation constant of radioligand
T1 construct: expressed in transfected cells; membranes
Method: (§1) .check mark. In vitro: human D2 and D3 receptor binding study
(§2) CHO (Chinese Hamster Ovary) cells were transfected in a stable manner by the gene that codes for the human dopamine D2 or D3 receptor according to methods known from the literature. The native cells are deficient in the enzyme DHFR (DiHydroFolate Reductase). The cells are cultured in an incubator at 37° C. in a humid atmosphere of 5% CO2 /95% air. The transfections are carried out using Lipofectin (Gibco). The CHO cells, co-transfected with the human D2 receptor and the gene for resistance to phleomycin, were selected for their resistance to the presence of that antibiotic in the culture medium. The cells transfected with the human D3 receptor were selected in a medium containing no hypoxanthine/thymidine in the presence of methotrexate. […]
(§3) The ranges of concentration of each compound include at least seven points determined in triplicate, each experiment being repeated at least twice.
(§4) The incubation, which lasts for thirty minutes at 30° C., is terminated by means of rapid filtration over a Brandle apparatus, followed by three consecutive rinses with Tris-HCl buffer, pH 7.4, containing 120 mM NaCl. The filters recovered are then counted using a gamma counter. […]

[2] = biological target: T2, human dopamine D3 receptor (Homo sapiens, UniProt P35462); test: human D3 receptor binding ([125I]-iodosulpride, CHO membranes)
T2 construct: expressed in transfected cells; membranes
T2 sequence (P35462 whole entry): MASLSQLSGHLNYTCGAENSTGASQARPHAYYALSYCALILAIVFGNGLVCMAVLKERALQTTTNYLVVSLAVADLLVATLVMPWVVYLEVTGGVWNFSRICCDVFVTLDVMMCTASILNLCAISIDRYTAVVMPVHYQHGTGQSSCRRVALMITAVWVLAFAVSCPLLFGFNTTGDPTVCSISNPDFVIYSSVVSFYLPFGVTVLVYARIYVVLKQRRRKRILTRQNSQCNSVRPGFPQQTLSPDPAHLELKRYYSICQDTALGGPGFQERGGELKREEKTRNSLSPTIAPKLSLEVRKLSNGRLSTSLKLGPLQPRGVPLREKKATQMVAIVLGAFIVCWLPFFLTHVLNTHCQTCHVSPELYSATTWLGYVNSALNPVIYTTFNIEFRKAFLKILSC
Method: as §1, §2, §3, §4

T1 sequence (P14416 whole entry): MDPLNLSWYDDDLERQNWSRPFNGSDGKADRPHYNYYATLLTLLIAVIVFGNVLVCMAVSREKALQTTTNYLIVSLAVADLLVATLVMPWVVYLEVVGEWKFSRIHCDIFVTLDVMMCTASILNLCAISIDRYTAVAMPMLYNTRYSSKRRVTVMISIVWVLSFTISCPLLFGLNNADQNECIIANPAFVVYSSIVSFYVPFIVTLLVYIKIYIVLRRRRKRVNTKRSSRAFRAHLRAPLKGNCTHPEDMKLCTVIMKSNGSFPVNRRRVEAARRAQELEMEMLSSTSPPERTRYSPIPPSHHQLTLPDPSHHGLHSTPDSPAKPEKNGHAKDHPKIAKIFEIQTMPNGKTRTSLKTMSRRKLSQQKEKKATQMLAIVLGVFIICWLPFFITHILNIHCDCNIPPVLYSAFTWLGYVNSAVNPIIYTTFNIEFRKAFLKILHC

Compound: [^125 I]-iodosulpride
- Kd [1]: 0.5 nM
- Kd ([2]; dissociation constant of radioligand): 1.31 nM

Compound: CCCN(CCC)C1CCc2c(ccc3c2C(=O)CC3)C1 (racemic) [Example 2, (7R,S)-7-(N,N-Dipropylamino)-6,7,8,9-tetrahydro-cyclopenta[a]-naphthalen-1-one]
- Ki ([2]; [125I]-iodosulpride 0.2 nM, CHO membranes, pKi = -logKi): 10 nM
